Test system: Endogenous Huntingtin Protein
Experiment: Endogenous Huntingtin Protein Assay (Meso Scale Discovery ELISA-based electrochemiluminescence)
Assay type: cell-based
Conditions: MSD plates coated with MW1 (expanded polyglutamine) or MAB2166 capture antibody; lysates
Outline: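 MSD electrochemiluminescence sandwich ELISA: MW1 (expanded polyQ) or MAB2166 capture antibody at 1 μg/mL, samples incubated overnight at 4° C. Detection with rabbit monoclonal #5656S then SULFO-TAG anti-rabbit antibody, each 0.25 μg/mL for 1 h at room temperature.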

Row | SMILES | IC50 [nM]
1 | CCCn1cc(-c2ccc(-c3cc4nnn(C5CC(C)(C)NC(C)(C)C5)c4nn3)c(O)c2)cn1 [Cpd 47, 5-(1-propyl-1H-pyrazol-4-yl)-2-[3-(2,2,6,6-tetramethylpiperidin-4-yl)-3H-[1,2,3]triazolo[4,5-c]pyridazin-6-yl]phenol] | 1000 to 3000
2 | CC1(C)C[C@@H](n2nnc3cc(-c4ccc(-c5cn[nH]c5)cc4O)nnc32)[C@H](F)C(C)(C)N1 [Cpd 168, 2-{3-[(3S,4R)-3-fluoro-2,2,6,6-tetramethylpiperidin-4-yl]-3H-[1,2,3]triazolo[4,5-c]pyridazin-6-yl}-5-(1H-pyrazol-4-yl)phenol] | ≤ 100
3 | Oc1cc(-c2cn[nH]c2)ccc1-c1cc2[nH]cc(C3=CC4COCC(C3)N4)c2nn1 (centres unmarked) [Cpd 28, 2-[7-(3-oxa-9-azabicyclo[3.3.1]non-6-en-7-yl)-5H-pyrrolo[3,2-c]pyridazin-3-yl]-5-(1H-pyrazol-4-yl)phenol] | 1000 to 3000
4 | CC1(C)CC(n2nnc3cc(-c4ccc(-c5c[nH]cn5)cc4O)nnc32)CC(C)(C)N1 [Cpd 115, 5-(1H-imidazol-4-yl)-2-[3-(2,2,6,6-tetramethylpiperidin-4-yl)-3H-[1,2,3]triazolo[4,5-c]pyridazin-6-yl]phenol] | 100 to 500
5 | CNc1cc(-c2ccc(-c3cc4nnn(C5CC(C)(C)NC(C)(C)C5)c4nn3)c(O)c2)ccn1 [Cpd 104, 5-[2-(methylamino)pyridin-4-yl]-2-[3-(2,2,6,6-tetramethylpiperidin-4-yl)-3H-[1,2,3]triazolo[4,5-c]pyridazin-6-yl]phenol] | ≤ 100
6 | CC1(C)CC(n2nnc3cc(-c4ccc(-c5ccoc5)cc4O)nnc32)CC(C)(C)N1 [Cpd 95, 5-(furan-3-yl)-2-[3-(2,2,6,6-tetramethylpiperidin-4-yl)-3H-[1,2,3]triazolo[4,5-c]pyridazin-6-yl]phenol] | 100 to 500
7 | CC1(C)CC(n2ncc3cc(-c4ccc(-c5cncnc5)cc4O)nnc32)CC(C)(C)N1 [Cpd 167, 5-(pyrimidin-5-yl)-2-[1-(2,2,6,6-tetramethylpiperidin-4-yl)-1H-pyrazolo[3,4-c]pyridazin-5-yl]phenol] | 1000 to 3000
8 | Cc1nc2cc(-c3cc4nnn(C5CC(C)(C)NC(C)(C)C5)c4nn3)c(O)cc2[nH]1 [Cpd 97, 2-methyl-5-[3-(2,2,6,6-tetramethylpiperidin-4-yl)-3H-[1,2,3]triazolo[4,5-c]pyridazin-6-yl]-1H-benzimidazol-6-ol] | ≤ 100
9 | Oc1cc(-c2cn[nH]c2)ccc1-c1cc2[nH]cc(N3CCNCC3)c2nn1 [Cpd 43, 2-[7-(piperazin-1-yl)-5H-pyrrolo[3,2-c]pyridazin-3-yl]-5-(1H-pyrazol-4-yl)phenol] | 500 to 1000
10 | CC1(C)CC(n2nnc3cc(-c4ccc(-c5cc[nH]c5)cc4O)nnc32)CC(C)(C)N1 [Cpd 80, 5-(1H-pyrrol-3-yl)-2-[3-(2,2,6,6-tetramethylpiperidin-4-yl)-3H-[1,2,3]triazolo[4,5-c]pyridazin-6-yl]phenol] | 100 to 500
11 | [2H]C([2H])([2H])n1cc(-c2ccc(-c3cc4nnn(C5CC(C)(C)NC(C)(C)C5)c4nn3)c(O)c2)cn1 [Cpd 69, 5-[1-(^2H3)methyl-1H-pyrazol-4-yl]-2-[3-(2,2,6,6-tetramethylpiperidin-4-yl)-3H-[1,2,3]triazolo[4,5-c]pyridazin-6-yl]phenol] | ≤ 100
12 | CC1(C)CC(n2nnc3cc(-c4ccc(-c5ccnnc5)cc4O)nnc32)CC(C)(C)N1 [Cpd 76, 5-(pyridazin-4-yl)-2-[3-(2,2,6,6-tetramethylpiperidin-4-yl)-3H-[1,2,3]triazolo[4,5-c]pyridazin-6-yl]phenol] | 100 to 500
13 | COc1ncnc(-c2ccc(-c3cc4nnn(C5CC(C)(C)NC(C)(C)C5)c4nn3)c(O)c2)n1 [Cpd 159, 5-(4-methoxy-1,3,5-triazin-2-yl)-2-(3-(2,2,6,6-tetramethylpiperidin-4-yl)-3H-[1,2,3]triazolo[4,5-c]pyridazin-6-yl)phenol] | ≤ 100
14 | Oc1cc(-c2cn[nH]c2)ccc1-c1cc2scc(C3=CCNCC3)c2nn1 [Cpd 15, 5-(1H-pyrazol-4-yl)-2-[7-(1,2,3,6-tetrahydropyridin-4-yl)thieno[3,2-c]pyridazin-3-yl]phenol] | 1000 to 3000
15 | Cn1cc(-c2ccc(-c3cc4cnn(C5CC(C)(C)NC(C)(C)C5)c4nn3)c(O)c2)cn1 [Cpd 98, 5-(1-methyl-1H-pyrazol-4-yl)-2-[1-(2,2,6,6-tetramethylpiperidin-4-yl)-1H-pyrazolo[3,4-c]pyridazin-5-yl]phenol] | ≤ 100
16 | Cc1nc2cc(-c3cc(F)c(-c4cn[nH]c4)cc3F)nnc2n1C1CC(C)(C)NC(C)(C)C1 [Cpd 6, 3-[2,5-difluoro-4-(1H-pyrazol-4-yl)phenyl]-6-methyl-7-(2,2,6,6-tetramethylpiperidin-4-yl)-7H-imidazo[4,5-c]pyridazine] | 500 to 1000

Row | SMILES | IC50 [nM]
17 | CC1(C)CC(n2nnc3cc(-c4ccc(-c5cn[nH]c5)cc4O)nnc32)CC(C)(C)N1 [Cpd 7, 5-(1H-pyrazol-4-yl)-2-[3-(2,2,6,6-tetramethylpiperidin-4-yl)-3H-[1,2,3]triazolo[4,5-c]pyridazin-6-yl]phenol] | ≤ 100
18 | Cn1cc(-c2ccc(-c3cc4nnn(C5CC(C)(C)NC(C)(C)C5)c4nn3)c(O)c2)nn1 [Cpd 138, 5-(1-methyl-1H-1,2,3-triazol-4-yl)-2-[3-(2,2,6,6-tetramethylpiperidin-4-yl)-3H-[1,2,3]triazolo[4,5-c]pyridazin-6-yl]phenol] | 100 to 500
19 | Cn1ncc(-c2ccc(-c3cc4nnn(C5CC(C)(C)NC(C)(C)C5)c4nn3)c(O)c2)c1F [Cpd 121, 5-(5-fluoro-1-methyl-1H-pyrazol-4-yl)-2-[3-(2,2,6,6-tetramethylpiperidin-4-yl)-3H-[1,2,3]triazolo[4,5-c]pyridazin-6-yl]phenol] | ≤ 100
20 | CN(C)c1ccc(-c2ccc(-c3cc4nnn(C5CC(C)(C)NC(C)(C)C5)c4nn3)c(O)c2)cn1 [Cpd 84, 5-[6-(dimethylamino)pyridin-3-yl]-2-[3-(2,2,6,6-tetramethylpiperidin-4-yl)-3H-[1,2,3]triazolo[4,5-c]pyridazin-6-yl]phenol] | 1000 to 3000
21 | CC1(C)CC(n2nnc3cc(-c4ccc(-c5cccnc5)cc4O)nnc32)CC(C)(C)N1 [Cpd 65, 5-(pyridin-3-yl)-2-[3-(2,2,6,6-tetramethylpiperidin-4-yl)-3H-[1,2,3]triazolo[4,5-c]pyridazin-6-yl]phenol] | 500 to 1000
22 | CC1(C)CC(n2nnc3cc(-c4ccc(-c5ccc(OC(F)F)cn5)cc4O)nnc32)CC(C)(C)N1 [Cpd 103, 5-[5-(difluoromethoxy)pyridin-2-yl]-2-[3-(2,2,6,6-tetramethylpiperidin-4-yl)-3H-[1,2,3]triazolo[4,5-c]pyridazin-6-yl]phenol] | 100 to 500
23 | CC1(C)CC(n2nnc3cc(-c4ccc(-c5ccc6nncn6n5)cc4O)nnc32)CC(C)(C)N1 [Cpd 152, 2-[3-(2,2,6,6-tetramethylpiperidin-4-yl)-3H-[1,2,3]triazolo[4,5-c]pyridazin-6-yl]-5-([1,2,4]triazolo[4,3-b]pyridazin-6-yl)phenol] | 100 to 500
24 | CC1(C)CC(n2nnc3cc(-c4ccc(-c5ncc(O)cn5)cc4O)nnc32)CC(C)(C)N1 [Cpd 68, 2-{3-hydroxy-4-[3-(2,2,6,6-tetramethylpiperidin-4-yl)-3H-[1,2,3]triazolo[4,5-c]pyridazin-6-yl]phenyl}pyrimidin-5-ol] | ≤ 100
25 | CC1(C)CC(n2nnc3cc(-c4ccc(-c5ccn6cncc6c5)cc4O)nnc32)CC(C)(C)N1 [Cpd 88, 5-(imidazo[1,5-a]pyridin-7-yl)-2-[3-(2,2,6,6-tetramethylpiperidin-4-yl)-3H-[1,2,3]triazolo[4,5-c]pyridazin-6-yl]phenol] | 100 to 500
26 | CC1(C)CC(n2nnc3cc(-c4ccc(-c5cn[nH]c5)c(F)c4O)nnc32)CC(C)(C)N1 [Cpd 54, 2-fluoro-3-(1H-pyrazol-4-yl)-6-[3-(2,2,6,6-tetramethylpiperidin-4-yl)-3H-[1,2,3]triazolo[4,5-c]pyridazin-6-yl]phenol] | ≤ 100
27 | Cn1cc(-c2ccc(-c3cc4nnn(C5CC(C)(C)NC(C)(C)C5)c4nn3)c(O)c2)c(F)n1 [Cpd 130, 5-(3-fluoro-1-methyl-1H-pyrazol-4-yl)-2-[3-(2,2,6,6-tetramethylpiperidin-4-yl)-3H-[1,2,3]triazolo[4,5-c]pyridazin-6-yl]phenol] | ≤ 100
28 | CC1(C)CC(n2nnc3cc(-c4ccc(-c5ccn(C6CC6)c(=O)c5)cc4O)nnc32)CC(C)(C)N1 [Cpd 86, 1-cyclopropyl-4-{3-hydroxy-4-[3-(2,2,6,6-tetramethylpiperidin-4-yl)-3H-[1,2,3]triazolo[4,5-c]pyridazin-6-yl]phenyl}pyridin-2(1H)-one] | 1000 to 3000
29 | Cc1cn(-c2ccc(-c3cc4nnn(C5CC(C)(C)NC(C)(C)C5)c4nn3)c(O)c2)c(C)n1 [Cpd 149, 5-(2,4-dimethyl-1H-imidazol-1-yl)-2-[3-(2,2,6,6-tetramethylpiperidin-4-yl)-3H-[1,2,3]triazolo[4,5-c]pyridazin-6-yl]phenol] | 1000 to 3000
30 | CC1(C)CC(n2nnc3cc(-c4ccc(-c5ccn6ncnc6c5)cc4O)nnc32)CC(C)(C)N1 [Cpd 126, 2-[3-(2,2,6,6-tetramethylpiperidin-4-yl)-3H-[1,2,3]triazolo[4,5-c]pyridazin-6-yl]-5-([1,2,4]triazolo[1,5-a]pyridin-7-yl)phenol] | 100 to 500
31 | CC1(C)CC(n2nnc3cc(-c4ccc(-c5ccncc5)cc4O)nnc32)CC(C)(C)N1 [Cpd 66, 5-(pyridin-4-yl)-2-[3-(2,2,6,6-tetramethylpiperidin-4-yl)-3H-[1,2,3]triazolo[4,5-c]pyridazin-6-yl]phenol] | ≤ 100
32 | CC1(C)CC(n2nnc3cc(-c4ccc(-n5cccn5)cc4O)nnc32)CC(C)(C)N1 [Cpd 34, 5-(1H-pyrazol-1-yl)-2-[3-(2,2,6,6-tetramethylpiperidin-4-yl)-3H-[1,2,3]triazolo[4,5-c]pyridazin-6-yl]phenol] | 100 to 500
